Values joined by “and” are separate entries in the source; they are usually repeats but may differ in a detail not shown here. Equal entries are not always repeated.
Tests used:
MMP-13 = molecular target: T1, MMP-13 (Homo sapiens, UniProt P45452); experiment: In vitro MMP inhibition, Ki determination (fluorogenic substrate II); format: biochemical; settings: value outside parentheses; read-out: MMP-13 Ki
T1 construct: made in house; host or cells: baculovirus / insect cells
How it was run: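 Ki determined with human recombinant MMP-13, baculovirus-expressed as proenzyme and activated with APMA. Fluorogenic MCA/Dpa substrate II at 4 μM (at or below Km) with low enzyme in Tris buffer pH 7.5 with CaCl2. Incubation was 1 h at room temperature, with fluorescence read at 330/420 nm.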

MMP-2 = molecular target: T2, MMP-2 (Homo sapiens, UniProt P08253); experiment: as above; format: biochemical; settings: value outside parentheses; read-out: MMP-2 Ki
T2 construct: made in house; host or cells: MMP-2-transfected p2AHT2 cells
T2 sequence (P08253 110-660): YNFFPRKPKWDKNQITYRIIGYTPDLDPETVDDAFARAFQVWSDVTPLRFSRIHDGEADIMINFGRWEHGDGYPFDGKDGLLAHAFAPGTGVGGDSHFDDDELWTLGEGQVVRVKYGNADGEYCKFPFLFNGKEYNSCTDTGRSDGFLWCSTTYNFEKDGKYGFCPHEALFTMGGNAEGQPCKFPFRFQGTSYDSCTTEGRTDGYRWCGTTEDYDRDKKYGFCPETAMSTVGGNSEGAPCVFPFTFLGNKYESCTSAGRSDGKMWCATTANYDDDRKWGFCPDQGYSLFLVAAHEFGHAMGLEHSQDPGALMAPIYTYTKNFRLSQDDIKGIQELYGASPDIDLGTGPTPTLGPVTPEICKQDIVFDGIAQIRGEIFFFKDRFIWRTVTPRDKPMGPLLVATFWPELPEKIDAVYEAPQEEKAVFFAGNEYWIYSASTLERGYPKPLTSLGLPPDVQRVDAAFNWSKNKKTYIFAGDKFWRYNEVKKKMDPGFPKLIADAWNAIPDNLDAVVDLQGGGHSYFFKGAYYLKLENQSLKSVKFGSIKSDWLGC

| SMILES | Ki (MMP-13) | Ki (MMP-2) |
| --- | --- | --- |
| CCc1ccc(C2CCN(S(=O)(=O)C3(C(=O)NO)CCN(CCOC)CC3)CC2)s1 [Example 314] | 19.6 nM | 9.1 nM |
| O=C(NO)C1(S(=O)(=O)N2CCC(N3CCN(c4ccc(Cl)cc4)CC3)CC2)CCOCC1 [Example 315] | 420 nM | 1820 nM |
| O=C(NO)C1(S(=O)(=O)N2CCN(c3ccc(-c4ccc(F)cc4F)cn3)CC2)CCOCC1 [Example 316] | 0.77 nM | 0.73 nM |
| O=C(NO)C1(S(=O)(=O)N2CCN(c3ccc(-c4ccccc4F)cn3)CC2)CCOCC1 [Example 317] | 0.71 nM | 0.55 nM |
| COc1ccccc1-c1ccc(N2CCN(S(=O)(=O)C3(C(=O)NO)CCOCC3)CC2)nc1 [Example 318] | 62.3 nM | 79 nM |
| O=C(NO)C1(S(=O)(=O)N2CCN(c3ccc(-c4cccc(OC(F)(F)F)c4)cn3)CC2)CCOCC1 [Example 319] | 4.62 nM | 33.1 nM |
| O=C(NO)C1(S(=O)(=O)N2CCN(c3ccc(CCCC(F)(F)F)cc3)CC2)CCOCC1 [Example 320] | 0.501 nM | 0.842 nM |
| O=C(NO)C1(S(=O)(=O)N2CCN(c3cnn(CCCC(F)(F)F)c(=O)c3)CC2)CCOCC1 [Example 321] | > 10000 nM | > 10000 nM |
| O=C(NO)C1(S(=O)(=O)N2CCN(c3cnn(-c4ccccc4)c(=O)c3)CC2)CCOCC1 [Example 322] | > 10000 nM | 7870 nM |
| CCCCc1ccc(C2CCN(S(=O)(=O)C3(C(=O)NO)CCOCC3)CC2)nc1 [Example 323] | 0.65 nM | 0.5 nM |
| COC(=O)c1ccc(N2CCN(S(=O)(=O)C3(C(=O)NO)CCOCC3)CC2)cc1 [Example 324] | 3.55 nM | 1.22 nM |
| O=C(NO)C1(S(=O)(=O)N2CCN(c3ccc(-c4ccc(OC(F)(F)F)cc4)cc3)CC2)CCOCC1 [Example 327] | 0.499 nM | 0.97 nM |
| O=C(NO)C1(S(=O)(=O)N2CCN(c3ccc(-c4ccc(Cl)c(Cl)c4)cc3)CC2)CCOCC1 [Example 328] | 0.71 nM | 3.58 nM |
| O=C(NO)C1(S(=O)(=O)N2CCN(c3cnn(-c4ccccc4)c(=O)c3Cl)CC2)CCOCC1 [Example 329] | > 10000 nM | > 10000 nM |
| O=C(NO)C1(S(=O)(=O)N2CCC(c3ccc(OCC(F)(F)C(F)(F)F)cc3)CC2)CCOCC1 [Example 330] | 0.92 nM | 1.18 nM |
| COCCN1CCC(C(=O)NO)(S(=O)(=O)N2CCN(c3ncccn3)CC2)CC1 [Example 332] | 28.2 nM | 190 nM |

| SMILES | Ki (MMP-13) | Ki (MMP-2) |
| --- | --- | --- |
| O=C(NO)C1(S(=O)(=O)N2CCN(c3ccc(OCC4CC4)c(F)c3)CC2)CCOCC1 [Example 333] | 1.12 nM | 0.58 nM |
| CCCCc1cnc(N2CCN(S(=O)(=O)C3(C(=O)NO)CCN(CCOC)CC3)CC2)nc1 [Example 334] | 2.75 nM | 5.99 nM |
| O=C(NO)C1(S(=O)(=O)N2CCN(c3ccc(OCC(F)(F)C(F)F)cc3)CC2)CCOCC1 [Example 336] | 0.522 nM | 0.606 nM |
| O=C(NO)C1(S(=O)(=O)N2CCC(c3ccc(OC(F)(F)C(F)F)cc3)CC2)CCOCC1 [Example 337] | 0.708 nM | 0.427 nM |
| CCN1CCC(C(=O)NO)(S(=O)(=O)N2CCN(c3ccc(-c4ccccc4)c(F)c3)CC2)CC1 [Example 341] | 2.59 nM | 0.829 nM |
| O=C(NO)C1(S(=O)(=O)N2CCN(c3ccc(OCCCC(F)(F)F)cc3)CC2)CC(O)C1 (stereo not shown) [Example 342] | 3.89 nM | 16.9 nM |
| CC(C)(C)c1ccc(-c2cnc(N3CCN(S(=O)(=O)C4(C(=O)NO)CCOCC4)CC3)s2)cc1 [Example 347] | 1.48 nM | 8.57 nM |
| Cc1ccccc1-c1cnc(N2CCN(S(=O)(=O)C3(C(=O)NO)CCOCC3)CC2)s1 [Example 348] | 2.99 nM | 4.61 nM |
| O=C(NO)C1(S(=O)(=O)N2CCC(c3ccc(OC(F)(F)C(F)(F)F)cc3)CC2)CCOCC1 [Example 349] | 5.08 nM | 2.12 nM |
| O=C(NO)C1(S(=O)(=O)N2CCC(c3ccc(OCC(F)(F)C(F)F)cc3)CC2)CCN(C2CC2)CC1 [Example 350] | 0.523 nM | 0.891 nM |
| O=C(O)c1ccc(N2CCN(S(=O)(=O)C3(C(=O)NO)CCOCC3)CC2)cc1 [Example 352] | 3640 nM | 2130 nM |
| CCCCOc1cccc(N2CCN(S(=O)(=O)C3(C(=O)NO)CCOCC3)CC2)c1 [Example 354] | 165 nM | 89.4 nM |
| O=C(NO)C1(S(=O)(=O)N2CCN(c3cccc(OCCCC(F)(F)F)c3)CC2)CCOCC1 [Example 355] | 51.1 nM | 38.3 nM |
| CCCCCc1cccc(N2CCN(S(=O)(=O)C3(C(=O)NO)CCOCC3)CC2)c1 [Example 356] | 35.3 nM | 65.7 nM |
| O=C(NO)C1(S(=O)(=O)N2CCC(c3ccc(OCC(F)(F)F)cc3)CC2)CCOCC1 [Example 357] | 1.2 nM | 0.919 nM |
| O=C(NO)C1(S(=O)(=O)N2CCN(c3ncc(/C=C/c4ccccc4)s3)CC2)CCOCC1 [Example 361] | 1.06 nM and 1.07 nM | 1.37 nM and 1.39 nM |

Next, values leading:

| Ki (MMP-13) | Ki (MMP-2) | SMILES |
| --- | --- | --- |
| 0.09 nM | 0.18 nM | CCCCOc1ccc(N2CCN(S(=O)(=O)C3(C(=O)NO)CCN(CCOC)CC3)CC2)nc1 [Example 325] |
| 0.31 nM | 0.34 nM | O=C(NO)C1(S(=O)(=O)N2CCN(c3ccc(OCC(F)(F)C(F)F)cc3)CC2)CCOCC1 [Example 326] |
| 0.193 nM | 0.103 nM | O=C(NO)C1(S(=O)(=O)N2CCN(c3ccc(Br)cn3)CC2)CCOCC1 [Example 331] |
| 0.489 nM | 0.618 nM | O=C(NO)C1(S(=O)(=O)N2CCN(c3ccc(CCC(F)(F)C(F)(F)F)cc3)CC2)CCN(C2CC2)CC1 [Example 335] |
| 0.302 nM | 1.09 nM | O=C(NO)C1(S(=O)(=O)N2CCC(c3ccc(CCCC(F)(F)F)cn3)CC2)CCOCC1 [Example 338] |
| 0.107 nM | 0.26 nM | O=C(NO)C1(S(=O)(=O)N2CCC(c3ccc(CCC(F)(F)C(F)(F)F)cn3)CC2)CCOCC1 [Example 340] |
| 0.167 nM | 0.113 nM | O=C(NO)C1(S(=O)(=O)N2CCN(c3ncc(-c4ccc(Cl)cc4)s3)CC2)CCOCC1 [Example 343] |
| 0.267 nM | 0.177 nM | Cc1ccc(-c2cnc(N3CCN(S(=O)(=O)C4(C(=O)NO)CCOCC4)CC3)s2)cc1 [Example 344] |
| 0.236 nM | 0.169 nM | O=C(NO)C1(S(=O)(=O)N2CCN(c3ncc(-c4ccc(F)cc4)s3)CC2)CCOCC1 [Example 345] |
| 0.167 nM | 0.215 nM | O=C(NO)C1(S(=O)(=O)N2CCN(c3ncc(-c4ccc(C(F)(F)F)cc4)s3)CC2)CCOCC1 [Example 346] |
| 0.359 nM | 1.26 nM | O=C(NO)C1(S(=O)(=O)N2CCC(c3ccc(CCCC(F)(F)F)cc3)CC2)CCN(C2CC2)CC1 [Example 351] |
| 0.378 nM | 1.29 nM | O=C(NO)C1(S(=O)(=O)N2CCC(c3ccc(CCCC(F)(F)F)cc3)CC2)CCOCC1 [Example 353] |
| 0.15 nM | 0.281 nM | O=C(NO)C1(S(=O)(=O)N2CCN(c3ccc(CCCC(F)(F)F)cn3)CC2)CCOCC1 [Example 358] |
| 0.439 nM | 0.266 nM | O=C(NO)C1(S(=O)(=O)N2CCN(c3ncc(-c4ccc(F)cc4F)s3)CC2)CCOCC1 [Example 359] |
| 0.426 nM | 0.395 nM | O=C(NO)C1(S(=O)(=O)N2CCN(c3ncc(-c4ccc(-c5ccccc5)cc4)s3)CC2)CCOCC1 [Example 360] |
